Test results from ChEMBL document CHEMBL4385643, “Design of a brain-penetrant CDK4/6 inhibitor for glioblastoma” (Bioorg Med Chem Lett, 2019).

How the values were obtained:
[1] = molecular target: Mitogen-activated protein kinase 12 (Homo sapiens) (UniProt P53778); assay: Inhibition of recombinant full length human His-tagged p38gamma expressed in baculovirus expression system at 0.1 uM using serine/threonine-3 peptide as substrate incubated for 60 mins by Z'-LYTE assay relative to control
[2] = molecular target: Serine/threonine-protein kinase Chk1 (Homo sapiens) (UniProt O14757); assay: Inhibition of recombinant full length human His-tagged CHK1 expressed in baculovirus expression system at 0.1 uM using serine/threonine-19 peptide as substrate incubated for 60 mins by Z'-LYTE assay relative to control
[3] = molecular target: Death-associated protein kinase 3 (Homo sapiens) (UniProt O43293); assay: Inhibition of recombinant full length human GST-tagged ZIPK expressed in baculovirus expression system at 0.1 uM using serine/threonine-13 peptide as substrate incubated for 60 mins by Z'-LYTE assay relative to control
[4] = molecular target: Inhibitor of nuclear factor kappa-B kinase subunit alpha (Homo sapiens) (UniProt O15111); assay: Inhibition of recombinant full length human His-tagged IKKalpha expressed in baculovirus expression system at 0.1 uM incubated for 60 mins by Adapta assay relative to control
[5] = molecular target: Calcium/calmodulin-dependent protein kinase kinase 2 (Homo sapiens) (UniProt Q96RR4); assay: Inhibition of tracer 236 binding to recombinant full length human GST-tagged CAMKK2 expressed in baculovirus expression system at 0.1 uM measured after 60 mins by Lanthascreen assay relative to control
[6] = molecular target: Phosphorylase b kinase gamma catalytic chain, skeletal muscle/heart isoform (Homo sapiens) (UniProt Q16816); assay: Inhibition of recombinant full length human GST-tagged PHKG1 expressed in baculovirus expression system at 0.1 uM using serine/threonine-7 peptide as substrate incubated for 60 mins by Z'-LYTE assay relative to control
[7] = molecular target: cAMP-dependent protein kinase catalytic subunit PRKX (Homo sapiens) (UniProt P51817); assay: Inhibition of recombinant full length human GST-tagged PRKX expressed in baculovirus expression system at 0.1 uM using serine/threonine-1 peptide as substrate incubated for 60 mins by Z'-LYTE assay relative to control
[8] = molecular target: PAS domain-containing serine/threonine-protein kinase (Homo sapiens) (UniProt Q96RG2); assay: Inhibition of recombinant human GST-tagged PASK catalytic domain (879 to 1323 residues) expressed in baculovirus expression system at 0.1 uM using serine/threonine-7 peptide as substrate incubated for 60 mins by Z'-LYTE assay relative to control
[9] = molecular target: Death-associated protein kinase 1 (Homo sapiens) (UniProt P53355); assay: Inhibition of recombinant human GST-tagged DAPK1 catalytic domain (1 to 363 residues) expressed in baculovirus expression system at 0.1 uM using ZIPtide peptide as substrate incubated for 60 mins by Adapta assay relative to control
[10] = molecular target: Cyclin-Y/Cyclin-dependent kinase 16 (Homo sapiens) (UniProt Q00536+Q8ND76); assay: Inhibition of tracer 236 binding to recombinant human GST-tagged CDK16/cyclin Y catalytic domain (CDK16: 108 to end, Cyclin Y: 2 to end) expressed by baculovirus in Sf9 insect cells expression system at 0.1 uM measured after 60 mins by Lanthascreen assay relative to control
[11] = molecular target: Receptor-interacting serine/threonine-protein kinase 2 (Homo sapiens) (UniProt O43353); assay: Inhibition of tracer 178 binding to recombinant human His-tagged RIPK2 catalytic domain (1 to 299 residues) expressed in baculovirus expression system at 0.1 uM measured after 60 mins by Lanthascreen assay relative to control
[12] = molecular target: Proto-oncogene tyrosine-protein kinase ROS (Homo sapiens) (UniProt P08922); assay: Inhibition of recombinant human GST-tagged ROS1 catalytic domain (1883 to 2347 residues) expressed in baculovirus expression system at 0.1 uM using tyrosine-2 peptide as substrate incubated for 60 mins by Z'-LYTE assay relative to control
[13] = molecular target: Protein kinase C delta type (Homo sapiens) (UniProt Q05655); assay: Inhibition of recombinant full length human GST-tagged PKCdelta expressed in insect expression system at 0.1 uM using serine/threonine-7 peptide as substrate incubated for 60 mins by Z'-LYTE assay relative to control
Homo sapiens = species on record: Homo sapiens; assay: Inhibition of recombinant human His-tagged PKA catalytic domain (1 to 351 residues) expressed in Escherichia coli expression system at 0.1 uM using serine/threonine-1 peptide as substrate incubated for 60 mins by Z'-LYTE assay relative to control
[14] = molecular target: LIM domain kinase 1 (Homo sapiens) (UniProt P53667); assay: Inhibition of tracer 236 binding to recombinant human His-tagged LIMK1 catalytic domain (285 to 638 residues) expressed in baculovirus expression system at 0.1 uM measured after 60 mins by Lanthascreen assay relative to control
[15] = molecular target: Ribosomal protein S6 kinase alpha-1 (Homo sapiens) (UniProt Q15418); assay: Inhibition of recombinant full length human His-tagged RSK1 expressed in baculovirus expression system at 0.1 uM using serine/threonine-6 peptide as substrate incubated for 60 mins by Z'-LYTE assay relative to control
[16] = molecular target: Macrophage-stimulating protein receptor (Homo sapiens) (UniProt Q04912); assay: Inhibition of recombinant human GST-tagged RON catalytic domain (983 to 1400 residues) expressed in baculovirus expression system at 0.1 uM using tyrosine-6 peptide as substrate incubated for 60 mins by Z'-LYTE assay relative to control
[17] = molecular target: Mitogen-activated protein kinase kinase kinase 9 (Homo sapiens) (UniProt P80192); assay: Inhibition of recombinant human GST-tagged MLK1 catalytic domain (1 to 500 residues) expressed in baculovirus expression system at 0.1 uM using serine/threonine-7 peptide as substrate incubated for 60 mins by Z'-LYTE assay relative to control
[18] = molecular target: Protein kinase C zeta type (Homo sapiens) (UniProt Q05513); assay: Inhibition of recombinant full length human PKCzeta expressed in baculovirus expression system at 0.1 uM using serine/threonine-7 peptide as substrate incubated for 60 mins by Z'-LYTE assay relative to control
[19] = molecular target: Serine/threonine-protein kinase SIK2 (Homo sapiens) (UniProt Q9H0K1); assay: Inhibition of recombinant full length human GST-tagged SIK2 expressed in baculovirus expression system at 0.1 uM using serine/threonine-25 peptide as substrate incubated for 60 mins by Z'-LYTE assay relative to control
[20] = molecular target: Mitogen-activated protein kinase kinase kinase 5 (Homo sapiens) (UniProt Q99683); assay: Inhibition of tracer 236 binding to recombinant full length human GST-tagged ASK1 expressed in baculovirus expression system at 0.1 uM measured after 60 mins by Lanthascreen assay relative to control
[21] = molecular target: Protein kinase C theta type (Homo sapiens) (UniProt Q04759); assay: Inhibition of recombinant full length human His-tagged PKCtheta expressed in baculovirus expression system at 0.1 uM using serine/threonine-7 peptide as substrate incubated for 60 mins by Z'-LYTE assay relative to control
[22] = molecular target: Wee1-like protein kinase (Homo sapiens) (UniProt P30291); assay: Inhibition of tracer 178 binding to recombinant full length human GST-tagged WEE1 expressed in baculovirus expression system at 0.1 uM measured after 60 mins by Lanthascreen assay relative to control
Chain of Wee1-like protein kinase (Homo sapiens) (P30291 whole entry, looked up): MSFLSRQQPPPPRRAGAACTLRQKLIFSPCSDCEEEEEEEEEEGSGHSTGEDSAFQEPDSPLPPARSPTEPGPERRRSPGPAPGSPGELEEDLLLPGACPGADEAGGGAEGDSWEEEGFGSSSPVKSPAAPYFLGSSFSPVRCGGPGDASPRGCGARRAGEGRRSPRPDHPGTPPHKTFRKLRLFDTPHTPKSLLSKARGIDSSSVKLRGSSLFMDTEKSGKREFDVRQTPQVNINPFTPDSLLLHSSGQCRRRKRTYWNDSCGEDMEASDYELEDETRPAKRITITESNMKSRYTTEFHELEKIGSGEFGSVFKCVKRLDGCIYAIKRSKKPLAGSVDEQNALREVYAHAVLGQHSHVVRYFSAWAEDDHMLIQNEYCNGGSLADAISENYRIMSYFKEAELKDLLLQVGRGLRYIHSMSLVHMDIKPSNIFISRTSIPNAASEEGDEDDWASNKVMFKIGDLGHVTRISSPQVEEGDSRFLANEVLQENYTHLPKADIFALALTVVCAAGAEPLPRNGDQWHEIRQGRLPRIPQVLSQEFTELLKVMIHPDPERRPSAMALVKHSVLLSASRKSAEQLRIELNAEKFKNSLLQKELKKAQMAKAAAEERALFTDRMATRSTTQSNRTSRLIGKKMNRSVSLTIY

Chain of Protein kinase C theta type (Homo sapiens) (Q04759 whole entry, looked up): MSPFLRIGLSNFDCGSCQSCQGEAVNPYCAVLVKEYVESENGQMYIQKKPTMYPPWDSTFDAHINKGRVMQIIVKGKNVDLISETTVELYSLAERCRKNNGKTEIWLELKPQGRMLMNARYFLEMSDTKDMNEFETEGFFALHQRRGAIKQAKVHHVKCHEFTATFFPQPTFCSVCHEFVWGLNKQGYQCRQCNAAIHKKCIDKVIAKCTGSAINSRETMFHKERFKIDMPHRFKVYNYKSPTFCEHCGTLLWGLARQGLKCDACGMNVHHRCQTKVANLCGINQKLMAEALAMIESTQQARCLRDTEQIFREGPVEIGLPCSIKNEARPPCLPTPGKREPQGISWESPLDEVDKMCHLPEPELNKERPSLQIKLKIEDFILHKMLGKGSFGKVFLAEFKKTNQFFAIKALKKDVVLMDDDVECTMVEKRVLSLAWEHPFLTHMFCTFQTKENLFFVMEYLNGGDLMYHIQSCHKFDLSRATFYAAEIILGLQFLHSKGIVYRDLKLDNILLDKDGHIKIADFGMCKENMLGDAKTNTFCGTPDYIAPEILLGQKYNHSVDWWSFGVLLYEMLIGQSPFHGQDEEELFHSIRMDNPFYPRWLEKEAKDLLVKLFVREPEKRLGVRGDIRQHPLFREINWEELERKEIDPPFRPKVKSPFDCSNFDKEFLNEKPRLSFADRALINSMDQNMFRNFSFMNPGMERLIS
Chain of Inhibitor of nuclear factor kappa-B kinase subunit alpha (Homo sapiens) (O15111 whole entry): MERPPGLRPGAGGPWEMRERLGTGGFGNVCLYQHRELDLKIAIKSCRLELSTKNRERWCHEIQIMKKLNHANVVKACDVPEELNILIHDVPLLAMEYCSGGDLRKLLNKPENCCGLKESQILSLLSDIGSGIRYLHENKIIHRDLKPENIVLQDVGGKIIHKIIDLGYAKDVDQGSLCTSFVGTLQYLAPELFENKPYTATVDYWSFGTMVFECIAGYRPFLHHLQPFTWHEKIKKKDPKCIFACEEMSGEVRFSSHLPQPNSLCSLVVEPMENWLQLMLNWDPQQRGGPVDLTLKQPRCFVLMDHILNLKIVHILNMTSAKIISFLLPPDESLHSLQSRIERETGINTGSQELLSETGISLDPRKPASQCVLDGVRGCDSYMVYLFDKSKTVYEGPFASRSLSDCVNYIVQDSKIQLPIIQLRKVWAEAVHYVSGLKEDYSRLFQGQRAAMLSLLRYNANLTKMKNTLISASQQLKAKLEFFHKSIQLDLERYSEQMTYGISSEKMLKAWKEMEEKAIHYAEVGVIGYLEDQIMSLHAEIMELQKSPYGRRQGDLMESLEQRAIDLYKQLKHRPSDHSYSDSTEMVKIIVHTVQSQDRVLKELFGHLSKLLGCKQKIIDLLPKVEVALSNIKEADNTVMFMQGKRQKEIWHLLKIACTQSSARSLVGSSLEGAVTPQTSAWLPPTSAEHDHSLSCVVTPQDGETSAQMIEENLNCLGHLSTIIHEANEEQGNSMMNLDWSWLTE
Chain of Mitogen-activated protein kinase kinase kinase 5 (Homo sapiens) (Q99683 whole entry): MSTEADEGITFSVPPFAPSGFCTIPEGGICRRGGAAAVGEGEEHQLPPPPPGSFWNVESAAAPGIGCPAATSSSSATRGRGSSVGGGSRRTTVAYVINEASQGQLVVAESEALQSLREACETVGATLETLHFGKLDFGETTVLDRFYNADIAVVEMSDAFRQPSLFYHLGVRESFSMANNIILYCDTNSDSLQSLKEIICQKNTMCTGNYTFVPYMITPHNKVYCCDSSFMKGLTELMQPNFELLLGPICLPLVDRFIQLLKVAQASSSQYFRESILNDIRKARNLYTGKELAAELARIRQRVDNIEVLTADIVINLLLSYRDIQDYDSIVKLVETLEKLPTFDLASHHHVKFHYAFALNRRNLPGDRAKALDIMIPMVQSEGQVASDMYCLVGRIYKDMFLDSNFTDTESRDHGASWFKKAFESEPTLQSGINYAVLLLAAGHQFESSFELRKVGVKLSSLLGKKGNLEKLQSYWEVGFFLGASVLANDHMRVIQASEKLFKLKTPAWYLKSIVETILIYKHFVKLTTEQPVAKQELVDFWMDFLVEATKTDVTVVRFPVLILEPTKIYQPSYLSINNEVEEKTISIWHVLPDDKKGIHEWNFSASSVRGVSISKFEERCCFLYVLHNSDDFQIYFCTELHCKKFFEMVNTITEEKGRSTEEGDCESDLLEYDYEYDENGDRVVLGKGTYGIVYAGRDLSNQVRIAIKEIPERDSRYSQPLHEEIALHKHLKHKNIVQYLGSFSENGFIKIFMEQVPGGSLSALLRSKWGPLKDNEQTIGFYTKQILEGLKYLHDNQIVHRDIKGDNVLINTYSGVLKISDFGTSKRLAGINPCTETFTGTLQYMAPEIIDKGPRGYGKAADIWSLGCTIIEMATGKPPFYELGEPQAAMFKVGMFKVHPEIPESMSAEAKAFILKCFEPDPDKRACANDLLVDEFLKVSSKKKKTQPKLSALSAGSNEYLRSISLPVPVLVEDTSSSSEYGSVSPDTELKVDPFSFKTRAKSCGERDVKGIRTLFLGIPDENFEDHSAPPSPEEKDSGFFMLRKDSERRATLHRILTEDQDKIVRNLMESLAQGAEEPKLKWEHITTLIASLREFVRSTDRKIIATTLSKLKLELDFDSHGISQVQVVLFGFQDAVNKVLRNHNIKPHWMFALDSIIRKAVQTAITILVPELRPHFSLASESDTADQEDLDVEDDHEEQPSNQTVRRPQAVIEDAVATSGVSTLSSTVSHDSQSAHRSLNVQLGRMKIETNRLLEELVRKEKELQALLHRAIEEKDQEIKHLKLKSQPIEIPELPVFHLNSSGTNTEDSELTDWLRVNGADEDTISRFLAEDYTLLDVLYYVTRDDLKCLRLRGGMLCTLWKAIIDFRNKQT
Chain of Mitogen-activated protein kinase 12 (Homo sapiens) (P53778 whole entry): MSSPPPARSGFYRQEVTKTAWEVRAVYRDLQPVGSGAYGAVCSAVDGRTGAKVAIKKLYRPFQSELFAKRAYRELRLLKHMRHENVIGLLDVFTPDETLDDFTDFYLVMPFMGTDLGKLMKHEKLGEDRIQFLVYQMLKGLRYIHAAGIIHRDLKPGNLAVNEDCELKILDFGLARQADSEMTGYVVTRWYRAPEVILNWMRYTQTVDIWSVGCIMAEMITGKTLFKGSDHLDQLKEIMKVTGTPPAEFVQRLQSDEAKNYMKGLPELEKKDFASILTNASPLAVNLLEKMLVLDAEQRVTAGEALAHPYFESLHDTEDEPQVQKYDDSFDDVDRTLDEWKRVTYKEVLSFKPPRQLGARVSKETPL
Chain of Receptor-interacting serine/threonine-protein kinase 2 (Homo sapiens) (O43353 whole entry, the tested form may be a part): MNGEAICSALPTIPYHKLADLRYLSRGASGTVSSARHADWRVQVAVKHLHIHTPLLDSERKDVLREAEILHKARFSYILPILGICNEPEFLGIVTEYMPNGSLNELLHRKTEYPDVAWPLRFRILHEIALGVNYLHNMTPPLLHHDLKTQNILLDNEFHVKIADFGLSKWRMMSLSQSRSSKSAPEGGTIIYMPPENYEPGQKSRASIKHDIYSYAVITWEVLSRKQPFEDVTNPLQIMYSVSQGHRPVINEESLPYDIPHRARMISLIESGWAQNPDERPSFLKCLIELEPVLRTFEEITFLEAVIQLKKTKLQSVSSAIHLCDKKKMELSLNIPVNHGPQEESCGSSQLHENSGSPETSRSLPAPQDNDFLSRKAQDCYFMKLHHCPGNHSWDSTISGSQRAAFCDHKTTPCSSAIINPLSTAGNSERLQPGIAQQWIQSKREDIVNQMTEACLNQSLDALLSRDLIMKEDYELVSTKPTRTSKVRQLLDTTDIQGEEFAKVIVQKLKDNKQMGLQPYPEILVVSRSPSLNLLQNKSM
Chain of Death-associated protein kinase 3 (Homo sapiens) (O43293 whole entry, looked up): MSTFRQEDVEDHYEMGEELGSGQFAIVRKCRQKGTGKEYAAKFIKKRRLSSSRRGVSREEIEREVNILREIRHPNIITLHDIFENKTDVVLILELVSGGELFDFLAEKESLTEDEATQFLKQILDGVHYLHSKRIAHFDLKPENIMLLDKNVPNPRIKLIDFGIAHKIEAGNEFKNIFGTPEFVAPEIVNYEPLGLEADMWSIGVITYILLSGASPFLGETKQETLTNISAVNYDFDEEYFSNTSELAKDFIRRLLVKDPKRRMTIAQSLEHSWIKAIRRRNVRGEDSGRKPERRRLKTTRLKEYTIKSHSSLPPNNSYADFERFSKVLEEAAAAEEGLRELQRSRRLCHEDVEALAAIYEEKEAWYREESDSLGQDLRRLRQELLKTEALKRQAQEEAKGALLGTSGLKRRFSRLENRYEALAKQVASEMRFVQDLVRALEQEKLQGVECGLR

Row | Structure (SMILES) | inhibition [1] | inhibition [2] | inhibition [3] | inhibition [4] | inhibition [5] | inhibition [6] | inhibition [7] | inhibition [8] | inhibition [9] | inhibition [10] | inhibition [11] | inhibition [12] | inhibition [13] | inhibition (Homo sapiens) | inhibition [14] | inhibition [15] | inhibition [16] | inhibition [17] | inhibition [18] | inhibition [19] | other results
1 | CCN1CCN(Cc2ccc(Nc3ncc(F)c(-c4cc(F)c5nc(C)n(C(C)C)c5c4)n3)nc2)CC1 [ABEMACICLIB] | 5% | -4.5% | 54.5% | 53.1% | 69.4% | 62% | 5% | 73% | 31.2% | 86.5% | 1.1% | 59.5% | 48.5% | 5% | 3.7% | 8% | 10.5% | 11.5% | 12% | 6% | inhibition [20]: 4.3%; inhibition [21]: 21.5%; inhibition [22]: 5.5%
2 | CCN1CC2(C1)CN(c1ccc(Nc3ncc(F)c(-c4cnn5c4[C@H](C)CCCC5)n3)nc1)C2 | 16% | 9% | 6% | -2% | 44% | 64% | 5.5% | 14.5% | 14% | 79% | 2% | 57.5% | 23.5% | 4% | -2% | 19.5% | 7% | 47% | -3% | 26.5% | inhibition [20]: 7%; inhibition [21]: 20.5%; inhibition [22]: 11%
